Results reported in US20220341922A1, “FLUORESCENT PROBE FOR USE IN DETECTION OF BRAIN TUMOR” (The University of Tokyo, priority 2019, published 2022).

Assays:
[1] = tested on: fresh glioblastoma and peritumoral tissue; experiment: Screening by fluorescent probe on fresh glioblastoma and peritumoral tissue specimens; conditions: for tumor-specific fluorescent labeling as compared with the surrounding tissue: 50 μM probe solution in PBS, 0.5% v/v DMSO, Ex 465 nm, Em 515 nm, FIGS. 1 and 2; for fluorescence intensity in the tumor: 50 μM probe solution
Procedure: The fluorescent intensity of fresh glioblastoma and peritumoral tissue were compared using the fluorescent probes YK190, YK213, YK19, and YK281 synthesized in Example 1. As a comparative example, hydroxymethyl rhodamine green (HRMG) having no dipeptide site was used.
50 μM probe solutions (200 μL) in PBS, containing 0.5% v/v DMSO as a co-solvent was added dropwise to each specimen, and the fluorescence intensity was measured over time using Maestro In Vivo Imaging System Ex. • Excitation wavelength: 465 nm • Emission wavelength: 515 nm

[2] = molecular target: T1, calpain 1 (Homo sapiens, UniProt P07384); experiment: Change in fluorescence intensity of candidate enzymes using inhibitors; type: biochemical; conditions: candidate enzyme calpain 1
T1 sequence (P07384 1-714): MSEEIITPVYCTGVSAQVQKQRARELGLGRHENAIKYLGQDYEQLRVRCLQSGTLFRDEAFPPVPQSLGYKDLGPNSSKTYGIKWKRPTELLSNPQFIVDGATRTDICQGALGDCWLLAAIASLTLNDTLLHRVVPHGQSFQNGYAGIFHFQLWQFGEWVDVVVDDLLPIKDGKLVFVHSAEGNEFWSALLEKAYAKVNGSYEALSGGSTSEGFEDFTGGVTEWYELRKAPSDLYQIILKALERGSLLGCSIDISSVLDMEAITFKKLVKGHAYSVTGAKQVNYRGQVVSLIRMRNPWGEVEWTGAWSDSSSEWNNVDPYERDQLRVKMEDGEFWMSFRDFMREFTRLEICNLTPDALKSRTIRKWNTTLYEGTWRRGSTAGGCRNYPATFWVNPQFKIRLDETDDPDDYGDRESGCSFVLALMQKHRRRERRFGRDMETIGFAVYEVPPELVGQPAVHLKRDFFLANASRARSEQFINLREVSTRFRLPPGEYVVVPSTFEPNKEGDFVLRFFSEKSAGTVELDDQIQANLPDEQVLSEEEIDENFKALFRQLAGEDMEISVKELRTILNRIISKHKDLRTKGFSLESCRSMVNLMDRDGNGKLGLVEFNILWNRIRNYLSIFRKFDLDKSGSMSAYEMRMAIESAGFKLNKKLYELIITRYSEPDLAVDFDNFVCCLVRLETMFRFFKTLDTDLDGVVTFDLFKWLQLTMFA
T1 sequence (P04632 1-268 partner): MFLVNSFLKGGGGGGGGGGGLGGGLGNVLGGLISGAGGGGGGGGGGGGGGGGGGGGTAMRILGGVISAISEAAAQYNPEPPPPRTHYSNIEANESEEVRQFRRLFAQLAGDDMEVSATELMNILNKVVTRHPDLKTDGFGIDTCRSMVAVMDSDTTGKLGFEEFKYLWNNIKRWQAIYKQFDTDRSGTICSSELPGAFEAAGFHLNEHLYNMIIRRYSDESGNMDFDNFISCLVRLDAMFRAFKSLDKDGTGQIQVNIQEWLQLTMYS

[3] = molecular target: T2, cathepsin D (Homo sapiens, UniProt P07339); experiment: as above; type: biochemical; conditions: candidate enzyme cathepsin D
[4] = molecular target: T1, calpain 1; experiment: Reaction of fluorescent probe with purified enzyme; type: biochemical; conditions: purified calpain 1; FIG. 4
[5] = molecular target: T2, cathepsin D; experiment: Reaction of fluorescent probe with purified enzyme; type: biochemical; conditions: FIG. 4
[6] = tested on: calpain 1 knocked down in U87 glioblastoma cell line; experiment: Verification by siRNA knock-down using U87 cell line; type: cell-based; conditions: calpain 1 knocked down by siRNA, 48 hours culture; FIG. 5
Procedure: (§1) Calpain 1 and cathepsin D were knocked down by siRNA in a cell line, and a reaction with the fluorescent probe YK190 was observed. The experiment was conducted in accordance with the procedure shown below.
(§2) Transfection of U87, a glioblastoma cell line, was done with siRNA utilizing lipofectamine. A reaction with a fluorescent probe was observed after culture for 48 hours.

[7] = tested on: cathepsin D knocked down in U87 glioblastoma cell line; experiment: as above; type: cell-based; conditions: 48 hours culture, FIG. 5
Procedure: as §1, §2

T2 sequence (P07339 65-412, species assumed): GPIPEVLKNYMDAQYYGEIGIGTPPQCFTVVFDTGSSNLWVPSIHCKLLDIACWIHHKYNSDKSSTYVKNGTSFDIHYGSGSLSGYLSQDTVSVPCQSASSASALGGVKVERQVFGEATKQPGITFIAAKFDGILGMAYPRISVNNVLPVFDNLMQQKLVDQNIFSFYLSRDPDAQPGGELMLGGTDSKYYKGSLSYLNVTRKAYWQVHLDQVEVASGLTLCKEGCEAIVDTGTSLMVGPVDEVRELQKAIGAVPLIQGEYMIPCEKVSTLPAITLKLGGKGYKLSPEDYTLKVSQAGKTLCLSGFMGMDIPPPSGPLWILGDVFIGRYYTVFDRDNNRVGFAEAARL

Q: How did the “tumor-specific fluorescent labeling as compared with the surrounding tissue” value [1] turn out when `N[C@@H](Cc1c[nH]cn1)C(=O)O` [YK213, Histidine] was run?
A: fluorescent labeling was performed in a tumor-specific manner

Q: And the “fluorescence intensity in the tumor” value ([1]; FIG. 2)?
A: high fluorescence intensity

Q: How did the “change in fluorescence intensity with inhibitor” value [2] turn out when `COCCOCCOC(=O)N[C@@H](CC(C)C)C(=O)N[C@@H](Cc1ccccc1)C(=O)C(=O)NC1CC1` [SNJ-1945] was run?
A: fluorescence suppression

Q: And the “change in fluorescence intensity with inhibitor” value [3]?
A: fluorescence suppression

Q: `N[C@@H](Cc1ccc(O)cc1)C(=O)O` [YK19, Tyrosine] was tested. Which “tumor-specific fluorescent labeling as compared with the surrounding tissue” value [1] did it give?
A: a fluorescent response was also well-obtained in a tumor-specific manner

Q: What does the source list for `N=C(N)NCCC[C@H](N)C(=O)O` [YK190, Arginine]?
A: tumor-specific fluorescent labeling as compared with the surrounding tissue [1]: fluorescent labeling was performed in a tumor-specific manner; fluorescence intensity in the tumor ([1]; FIG. 2): high fluorescence intensity; fluorescence intensity relative to YK213 ([1]; in the tumor, FIG. 2): about two times that of YK213; change in fluorescence intensity by reaction with the probe [4]: significant increase in fluorescence intensity; change in fluorescence intensity by reaction with the probe [5]: significant increase in fluorescence intensity; fluorescence intensity compared to the control U87 cell line [6]: reduced fluorescence intensity; fluorescence intensity compared to the control U87 cell line [7]: reduced fluorescence intensity
